The term IC50 denotes the concentration that gives 50% inhibition.

≈ marks a conversion by molar mass, not a printed value. Non-standard residues stand in square brackets, D forms with d. Residues, ends and D or L forms follow the SMILES beside them. ξ: configuration not given here. *: point of attachment. X3 = CC(=O)N[C@H]1[C@H]([C@H](OCCCCCN*)[C@H](O)CO)OC(C(=O)O)=C[C@@H]1NC(=N)N; X4 = CC(=O)N[C@H]1[C@H]([C@H](OCCCCCN*)[C@H](O)CO)OC(C(=O)O)=C[C@@H]1N=C(N)N; X1 = CC(=O)N[C@H]1[C@H]([C@H](OCCN*)[C@H](O)CO)OC(C(=O)O)=C[C@@H]1NC(=N)N; X2 = CC(=O)N[C@H]1[C@H]([C@H](OCCN*)[C@H](O)CO)OC(C(=O)O)=C[C@@H]1N=C(N)N; ξE = NC(CCC(=O)O)C(=O)O; NHBn = c1ccc(CN*)cc1; NHPentyl = CCCCCN*

Test [1] is filed under the species Mus musculus. The experiment in a line: Number of survivors out of 7 tested mice at 20 days after infection with influenza A/PR/8/34 (H1N1) virus. The class given is functional.
The test system of test [2] is Influenza A virus. Kind of test: Inhibitory concentration by Sialidase inhibitory assay. The class given is functional, organism-based.
The species entered for test [3] is Mus musculus. The experiment in a line: Number of survivors out of 7 tested mice at 10 days after infection with influenza A/PR/8/34 (H1N1) virus. The class given is functional.
Test [4] has as its system Influenza A virus. Kind of test: Inhibitory concentration by Plaque reduction assay. The class given is functional, organism-based. A general note: Plaque reduction counts the foci of infection that form in a cell layer.
For test [5], the species on record is Mus musculus. The experiment in a line: Number of survivors out of 8 tested mice at 10 days after infection with influenza A/PR/8/34 (H1N1) virus. The class given is functional.
For test [6], the species on record is Mus musculus. The experiment in a line: Number of survivors out of 8 tested mice at 20 days after infection, with influenza A/PR/8/34 (H1N1) virus. It is filed as functional.

`CC(=O)N[C@H]1[C@H]([C@H](OCCCCCNC(=O)CCC(N)C(=O)N[C@@H](CCC(N)=O)C(=O)N[C@@H](CCC(N)=O)C(=O)N[C@@H](CCC(N)=O)C(=O)CN[C@@H](CCC(N)=O)C(=O)N[C@@H](CCC(N)=O)C(=O)N[C@@H](CCC(N)=O)C(=O)N[C@@H](CCC(N)=O)C(=O)N[C@@H](CCC(N)=O)C(=O)N[C@@H](CCC(N)=O)C(=O)N[C@@H](CCC(N)=O)C(N)=O)[C@H](O)CO)OC(C(=O)O)=C[C@@H]1NC(=N)N` (some centres undefined): the Survival rate in the test filed under Mus musculus [1] and in the test filed under Mus musculus [3] was 7 each time. In addition, the IC50 in the test with Influenza A virus [2] came to 0.161 µg/mL (≈ 87.5 nM); in the test on Influenza A virus [4], 0.072 ng/mL (≈ 0.0391 nM).

On to `CC(=O)NCCO[C@@H]([C@@H]1OC(C(=O)O)=C[C@H](N=C(N)N)[C@H]1NC(C)=O)[C@H](O)CO`, for which the IC50 with Influenza A virus [2] is 0.022 µg/mL (≈ 52.7 nM); with Influenza A virus [4], 5.5 ng/mL (≈ 13.2 nM).

In the case of `CC(=O)N[C@H]1[C@H]([C@H](OCCCCCCCCCCNC(=O)CCC(N)C(=O)N[C@@H](CCC(N)=O)C(=O)N[C@@H](CCC(N)=O)C(=O)N[C@@H](CCC(N)=O)C(=O)CN[C@@H](CCC(N)=O)C(=O)N[C@@H](CCC(N)=O)C(=O)N[C@@H](CCC(N)=O)C(=O)N[C@@H](CCC(N)=O)C(=O)N[C@@H](CCC(N)=O)C(=O)N[C@@H](CCC(N)=O)C(=O)N[C@@H](CCC(N)=O)C(N)=O)[C@H](O)CO)OC(C(=O)O)=C[C@@H]1NC(=N)N` (some centres undefined), the IC50 with Influenza A virus [2] was 0.062 µg/mL (≈ 32.4 nM); in the test on Influenza A virus [4], 2.1 ng/mL (≈ 1.1 nM).

As to `CC(=O)NCCCCCO[C@@H]([C@@H]1OC(C(=O)O)=C[C@H](N=C(N)N)[C@H]1NC(C)=O)[C@H](O)CO`, the IC50 in the test on Influenza A virus [2] was found to be 0.09 µg/mL (≈ 196 nM); in the test with Influenza A virus [4], 5.9 ng/mL (≈ 12.8 nM).

As for `CC(=O)N[C@H]1[C@H]([C@H](OCCNC(=O)CCC(N)C(=O)N[C@@H](CCC(N)=O)C(=O)N[C@@H](CCC(N)=O)C(=O)N[C@@H](CCC(N)=O)C(=O)CN[C@@H](CCC(N)=O)C(=O)N[C@@H](CCC(N)=O)C(=O)N[C@@H](CCC(N)=O)C(=O)N[C@@H](CCC(N)=O)C(=O)N[C@@H](CCC(N)=O)C(=O)N[C@@H](CCC(N)=O)C(=O)N[C@@H](CCC(N)=O)C(N)=O)[C@H](O)CO)OC(C(=O)O)=C[C@@H]1NC(=N)N` (some centres undefined), the IC50 with Influenza A virus [2] came to 0.114 µg/mL (≈ 63.4 nM); in the test with Influenza A virus [4] it was 0.066 ng/mL (≈ 0.0367 nM).

In the case of `CC(=O)N[C@H]1[C@H]([C@H](OCCNC(=O)CC[C@H](NC(=O)[C@H](CCC(=O)NCc2ccccc2)NC(=O)[C@H](CCC(=O)NCc2ccccc2)NC(=O)[C@H](CCC(=O)NCc2ccccc2)NC(=O)[C@@H](N)CCC(=O)NCc2ccccc2)C(=O)N[C@@H](CCC(N)=O)C(=O)N[C@@H](CCC(N)=O)C(=O)N[C@@H](CCC(N)=O)C(=O)N[C@@H](CCC(N)=O)C(=O)N[C@@H](CCC(N)=O)C(=O)N[C@@H](CCC(N)=O)C(=O)N[C@@H](CCC(N)=O)C(N)=O)[C@H](O)CO)OC(C(=O)O)=C[C@@H]1NC(=N)N` (H-E(NHBn)E(NHBn)E(NHBn)E(NHBn)E(X1)QQQQQQQ-NH2), the IC50 turned out to be 0.324 µg/mL (≈ 143 nM) in the test on Influenza A virus [2] and 0.15 ng/mL (≈ 0.066 nM) in the test on Influenza A virus [4].

With `CC(=O)N[C@H]1[C@H]([C@H](OCCCCCNC(=O)CC[C@H](NC(=O)[C@H](CCC(=O)NCc2ccccc2)NC(=O)[C@@H](N)CCC(=O)NCc2ccccc2)C(=O)N[C@@H](CCC(N)=O)C(=O)N[C@@H](CCC(N)=O)C(=O)N[C@@H](CCC(N)=O)C(=O)N[C@@H](CCC(N)=O)C(=O)N[C@@H](CCC(N)=O)C(=O)N[C@@H](CCC(N)=O)C(=O)N[C@@H](CCC(N)=O)C(=O)N[C@@H](CCC(N)=O)C(N)=O)[C@H](O)CO)OC(C(=O)O)=C[C@@H]1NC(=N)N` (H-E(NHBn)E(NHBn)E(X3)QQQQQQQQ-NH2), the IC50 in the test with Influenza A virus [2] worked out at 0.063 µg/mL (≈ 31.4 nM); in the test with Influenza A virus [4], 0.028 ng/mL (≈ 0.014 nM).

Consider `CCCCCNC(=O)CC[C@H](NC(=O)[C@H](CCC(=O)NCCCCC)NC(=O)[C@H](CCC(=O)NCCCCC)NC(=O)[C@@H](N)CCC(=O)NCCCCC)C(=O)N[C@@H](CCC(=O)NCCO[C@@H]([C@@H]1OC(C(=O)O)=C[C@H](N=C(N)N)[C@H]1NC(C)=O)[C@H](O)CO)C(=O)N[C@@H](CCC(N)=O)C(=O)N[C@@H](CCC(N)=O)C(=O)N[C@@H](CCC(N)=O)C(=O)N[C@@H](CCC(N)=O)C(=O)N[C@@H](CCC(N)=O)C(=O)N[C@@H](CCC(N)=O)C(=O)N[C@@H](CCC(N)=O)C(N)=O` (H-E(NHPentyl)E(NHPentyl)E(NHPentyl)E(NHPentyl)E(X2)QQQQQQQ-NH2), for which the IC50 in the test on Influenza A virus [2] was found to be 0.585 µg/mL (≈ 267 nM); in the test with Influenza A virus [4], 0.1 ng/mL (≈ 0.0456 nM).

As for `CCCCCNC(=O)CC[C@H](NC(=O)[C@@H](N)CCC(=O)NCCCCC)C(=O)N[C@@H](CCC(=O)NCCCCCO[C@@H]([C@@H]1OC(C(=O)O)=C[C@H](N=C(N)N)[C@H]1NC(C)=O)[C@H](O)CO)C(=O)N[C@@H](CCC(N)=O)C(=O)N[C@@H](CCC(N)=O)C(=O)N[C@@H](CCC(N)=O)C(=O)N[C@@H](CCC(N)=O)C(=O)N[C@@H](CCC(N)=O)C(=O)N[C@@H](CCC(N)=O)C(=O)N[C@@H](CCC(N)=O)C(=O)N[C@@H](CCC(N)=O)C(N)=O` (H-E(NHPentyl)E(NHPentyl)E(X4)QQQQQQQQ-NH2), the IC50 with Influenza A virus [2] turned out to be 0.113 µg/mL (≈ 57.4 nM); in the test with Influenza A virus [4], 0.32 ng/mL (≈ 0.163 nM).

As for `CC(=O)N[C@H]1[C@H]([C@H](OCCNC(=O)CCC(N)C(=O)N[C@@H](CCC(N)=O)C(=O)N[C@@H](CCC(N)=O)C(=O)N[C@@H](CCC(N)=O)C(N)=O)[C@H](O)CO)OC(C(=O)O)=C[C@@H]1NC(=N)N` (some centres undefined) (H-[ξE](X1)QQQ-NH2), the IC50 was 0.364 µg/mL (≈ 410 nM) in the test with Influenza A virus [2] and 0.17 ng/mL (≈ 0.191 nM) with Influenza A virus [4].

Consider `CC(=O)N[C@H]1[C@H]([C@H](O)[C@H](O)CO)OC(C(=O)O)=C[C@@H]1NC(=N)N` [ZANAMIVIR], for which the Survival rate is on record as 1 in the test filed under Mus musculus [5] and 0 in the test filed under Mus musculus [6].

The values are drawn from ChEMBL document CHEMBL1135182, “Synthesis and anti-influenza evaluation of polyvalent sialidase inhibitors bearing 4-guanidino-Neu5Ac2en derivatives” (Bioorg Med Chem Lett, 2002).
